Experimental data reported in patent US20160346347A1 (Oculis ehf., priority 2015, published 2016).

Columns and labels:
[1] = type: physicochemical
Procedure: An excess amount of drug was added to aqueous solutions containing up to 20% (w/v) cyclodextrin. The solutions were sonicated at 40-50° C. for 45-60 minutes in sealed glass vials, and then allowed to cool to room temperature (22-23° C.). Small amount of solid drug was then added to each vial, the vial resealed and allowed to equilibrate under constant agitation and protected from light for 7 days at room temperature. When the solutions had reached equilibrium, they were filtered through a 0.45 μm membrane filter and analyzed by high pressure liquid chromatography. […] The complexation efficiency (CE) was determined from the slope of phase-solubility diagrams (plots of total solubility of the drug versus total CD concentration in mol/l) where S0 is the intrinsic solubility of the drug:
The mobile phase consisted of acetonitrile, methanol and water (60:20:20), the flow rate was 1 ml/min, the column oven temperature was 80° C. and the detection wavelength was 205 nm.

[2] = in water (β-cyclodextrin: pure water at room temperature); cited from earlier work

Molecule	CE (complexation efficiency) [1]	Solubility in the presence of 5% (w/v) cyclodextrin [1]	Solubility in the presence of 15% (w/v) cyclodextrin [1]	aqueous solubility of the cyclodextrin [2]
Randomly methylated β-cyclodextrin	0.053	130 µg/mL		
OC[C@H]1O[C@@H]2O[C@H]3[C@H](O)[C@@H](O)[C@@H](O[C@H]4[C@H](O)[C@@H](O)[C@@H](O[C@H]5[C@H](O)[C@@H](O)[C@@H](O[C@H]6[C@H](O)[C@@H](O)[C@@H](O[C@H]7[C@H](O)[C@@H](O)[C@@H](O[C@H]8[C@H](O)[C@@H](O)[C@@H](O[C@H]9[C@H](O)[C@@H](O)[C@@H](O[C@H]1[C@H](O)[C@H]2O)O[C@@H]9CO)O[C@@H]8CO)O[C@@H]7CO)O[C@@H]6CO)O[C@@H]5CO)O[C@@H]4CO)O[C@@H]3CO [γ-Cyclodextrin]	0.0049	62 ± 0.6 µg/mL	110 ± 1.5 µg/mL	25 % (w/v)
OC[C@H]1O[C@@H]2O[C@H]3[C@H](O)[C@@H](O)[C@@H](O[C@H]4[C@H](O)[C@@H](O)[C@@H](O[C@H]5[C@H](O)[C@@H](O)[C@@H](O[C@H]6[C@H](O)[C@@H](O)[C@@H](O[C@H]7[C@H](O)[C@@H](O)[C@@H](O[C@H]1[C@H](O)[C@H]2O)O[C@@H]7CO)O[C@@H]6CO)O[C@@H]5CO)O[C@@H]4CO)O[C@@H]3CO [α-Cyclodextrin]	0.54	760 ± 16 µg/mL		13 % (w/v)

Second part, led by results:

CE (complexation efficiency) [1]	Solubility in the presence of 5% (w/v) cyclodextrin [1]	Solubility in the presence of 15% (w/v) cyclodextrin [1]	Molecule	aqueous solubility of the cyclodextrin [2]
0.030			OC[C@H]1O[C@@H]2O[C@H]3[C@H](O)[C@@H](O)[C@@H](O[C@H]4[C@H](O)[C@@H](O)[C@@H](O[C@H]5[C@H](O)[C@@H](O)[C@@H](O[C@H]6[C@H](O)[C@@H](O)[C@@H](O[C@H]7[C@H](O)[C@@H](O)[C@@H](O[C@H]8[C@H](O)[C@@H](O)[C@@H](O[C@H]1[C@H](O)[C@H]2O)O[C@@H]8CO)O[C@@H]7CO)O[C@@H]6CO)O[C@@H]5CO)O[C@@H]4CO)O[C@@H]3CO [β-Cyclodextrin]	2 % (w/v)
0.0011	48 ± 4 µg/mL	62 ± 5 µg/mL	2-Hydroxypropyl-γ-cyclodextrin	
0.031	84 µg/mL	460 µg/mL	2-Hydroxypropyl-α-cyclodextrin	
